The test system of assay [1] is Escherichia coli. Nature of the assay: Bactericidal activity against Escherichia coli up to 500 ug/ml after 48 hrs. In kind it is functional, organism-based.
For assay [2], the system named is Bacillus subtilis. The assay can be described thus: Bactericidal activity against Bacillus subtilis up to 500 ug/ml after 48 hrs. It is filed as functional, organism-based.
The test system of assay [3] is Bacillus subtilis. Nature of the assay: Bacteriostatic activity against Bacillus subtilis up to 500 ug/ml after 48 hrs. It is filed as functional, organism-based.
Assay [4] relates to Escherichia coli. Nature of the assay: Bacteriostatic activity against Escherichia coli up to 500 ug/ml after 48 hrs. In kind it is functional, organism-based.
The test system of assay [5] is Bacillus subtilis. The assay can be described thus: Antibacterial activity against Bacillus subtilis after 48 hrs. It is filed as functional.

This passage reports Activity and MIC results from ChEMBL document CHEMBL3632574, “Synthesis and evaluation of antibacterial activity of (R)-2-methylheptyl isonicotinate, a putative naturally occurring bioactive agent” (2015).

Calls of active or inactive are those of the source. The rule behind the calls is not given here.

As for `CCCCC[C@@H](C)COC(=O)c1ccncc1`, the outcome in the assay on Escherichia coli [1], with Bacillus subtilis [2], in the assay on Bacillus subtilis [3] and in the assay on Escherichia coli [4] was inactive.
Broadly, the MIC is the lowest concentration that inhibits growth of the organism. Consider `CC1(C)S[C@@H]2[C@H](NC(=O)[C@H](N)c3ccccc3)C(=O)N2[C@H]1C(=O)O` [AMPICILLIN], for which, in the assay with Bacillus subtilis [5], the MIC was less than 10 µg/mL.
For the compound `CCCCCCCCOC(=O)c1ccncc1`, the result with Escherichia coli [1], with Bacillus subtilis [2], in the assay on Bacillus subtilis [3] and with Escherichia coli [4] was inactive.
